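These data come from cells grown in 96-well plates and exposed to compound for 48 hours at five concentrations. GI50: concentration for 50% inhibition of growth. TGI denotes the concentration required for complete inhibition of growth.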
Legend:
Test in all cases: growth of human tumour cells (NCI), 48 h
A498 renal = system: A498 renal
MDA-MB-435 = system: MDA-MB-435
ACHN renal = system: ACHN renal
RPMI-8226 leukemia = system: RPMI-8226 leukemia
NCI-H23 lung = system: NCI-H23 lung
NCI/ADR-RES ovarian = system: NCI/ADR-RES ovarian
CAKI-1 renal = system: CAKI-1 renal
M14 melanoma = system: M14 melanoma
SW-620 colon = system: SW-620 colon
CCRF-CEM leukemia = system: CCRF-CEM leukemia
UACC-62 melanoma = system: UACC-62 melanoma
HCT-116 colon = system: HCT-116 colon
A549 NSCLC = system: A549 NSCLC
KM12 colon = system: KM12 colon
U251 CNS = system: U251 CNS
HT29 colon = system: HT29 colon
MDA-MB-231 breast = system: MDA-MB-231 breast
OVCAR-5 ovarian = system: OVCAR-5 ovarian
HS 578T breast = system: HS 578T breast
SK-MEL-2 melanoma = system: SK-MEL-2 melanoma
LOX IMVI melanoma = system: LOX IMVI melanoma
RXF 393 renal = system: RXF 393 renal
IGROV1 ovarian = system: IGROV1 ovarian
BT-549 breast = system: BT-549 breast
TK-10 renal = system: TK-10 renal
SF-539 CNS = system: SF-539 CNS
SK-OV-3 ovarian = system: SK-OV-3 ovarian
MCF7 breast = system: MCF7 breast
SK-MEL-5 melanoma = system: SK-MEL-5 melanoma
OVCAR-3 ovarian = system: OVCAR-3 ovarian
K-562 leukemia = system: K-562 leukemia
UO-31 renal = system: UO-31 renal
MOLT-4 leukemia = system: MOLT-4 leukemia
HOP-92 NSCLC = system: HOP-92 NSCLC
NCI-H522 lung = system: NCI-H522 lung
PC-3 prostate = system: PC-3 prostate
UACC-257 melanoma = system: UACC-257 melanoma
SNB-19 CNS = system: SNB-19 CNS
COLO 205 colon = system: COLO 205 colon
NCI-H460 lung = system: NCI-H460 lung
OVCAR-8 ovarian = system: OVCAR-8 ovarian
SR leukemia = system: SR leukemia
SF-268 CNS = system: SF-268 CNS
DU-145 prostate = system: DU-145 prostate
HCC-2998 colon = system: HCC-2998 colon
786-0 renal = system: 786-0 renal
HCT-15 colon = system: HCT-15 colon
SK-MEL-28 melanoma = system: SK-MEL-28 melanoma
SF-295 CNS = system: SF-295 CNS
T-47D breast = system: T-47D breast
EKVX NSCLC = system: EKVX NSCLC
MALME-3M melanoma = system: MALME-3M melanoma
HOP-62 NSCLC = system: HOP-62 NSCLC
HL-60(TB) leukemia = system: HL-60(TB) leukemia
SN12C renal = system: SN12C renal
NCI-H226 lung = system: NCI-H226 lung
OVCAR-4 ovarian = system: OVCAR-4 ovarian
SNB-75 CNS = system: SNB-75 CNS

Compound: COc1cc(Nc2nc3ccccc3n3cccc23)cc(OC)c1OC
- TGI (A498 renal): > 100000 nM
- TGI (MDA-MB-435): > 100000 nM
- TGI (ACHN renal): > 100000 nM
- TGI (RPMI-8226 leukemia): > 100000 nM
- TGI (NCI-H23 lung): > 100000 nM
- TGI (NCI/ADR-RES ovarian): > 100000 nM
- TGI (CAKI-1 renal): > 100000 nM
- TGI (M14 melanoma): > 100000 nM
- TGI (SW-620 colon): > 100000 nM
- TGI (CCRF-CEM leukemia): > 100000 nM
- TGI (UACC-62 melanoma): > 100000 nM
- TGI (HCT-116 colon): > 100000 nM
- TGI (A549 NSCLC): > 100000 nM
- TGI (KM12 colon): > 100000 nM
- TGI (U251 CNS): > 100000 nM
- TGI (HT29 colon): > 100000 nM
- TGI (MDA-MB-231 breast): > 100000 nM
- TGI (OVCAR-5 ovarian): > 100000 nM
- TGI (HS 578T breast): > 100000 nM
- TGI (SK-MEL-2 melanoma): > 100000 nM
- TGI (LOX IMVI melanoma): > 100000 nM
- TGI (RXF 393 renal): 99600 nM
- TGI (IGROV1 ovarian): > 100000 nM
- TGI (BT-549 breast): > 100000 nM
- TGI (TK-10 renal): > 100000 nM
- TGI (SF-539 CNS): > 100000 nM
- TGI (SK-OV-3 ovarian): > 100000 nM
- TGI (MCF7 breast): > 100000 nM
- TGI (SK-MEL-5 melanoma): > 100000 nM
- TGI (OVCAR-3 ovarian): > 100000 nM
- TGI (K-562 leukemia): > 100000 nM
- TGI (UO-31 renal): > 100000 nM
- TGI (MOLT-4 leukemia): > 100000 nM
- TGI (HOP-92 NSCLC): > 100000 nM
- TGI (NCI-H522 lung): > 100000 nM
- TGI (PC-3 prostate): > 100000 nM
- TGI (UACC-257 melanoma): > 100000 nM
- TGI (SNB-19 CNS): > 100000 nM
- TGI (COLO 205 colon): > 100000 nM
- TGI (NCI-H460 lung): > 100000 nM
- TGI (OVCAR-8 ovarian): > 100000 nM
- TGI (SR leukemia): > 100000 nM
- TGI (SF-268 CNS): > 100000 nM
- TGI (DU-145 prostate): > 100000 nM
- TGI (HCC-2998 colon): > 100000 nM
- TGI (786-0 renal): > 100000 nM
- TGI (HCT-15 colon): > 100000 nM
- TGI (SK-MEL-28 melanoma): > 100000 nM
- TGI (SF-295 CNS): > 100000 nM
- TGI (T-47D breast): 821 nM
- TGI (EKVX NSCLC): > 100000 nM
- TGI (MALME-3M melanoma): > 100000 nM
- TGI (HOP-62 NSCLC): 72900 nM
- TGI (HL-60(TB) leukemia): > 100000 nM

Compound: CCNCCCn1c2c(c3ccc(F)cc3c1=O)C(=O)c1cc(OC)cnc1-2
- GI50 (A498 renal): 248 nM
- TGI (A498 renal): 1350 nM
- GI50 (MDA-MB-435): 477 nM
- TGI (MDA-MB-435): 2130 nM
- GI50 (SN12C renal): 151 nM
- TGI (SN12C renal): 763 nM
- GI50 (ACHN renal): 127 nM
- TGI (ACHN renal): 371 nM
- GI50 (RPMI-8226 leukemia): 144 nM
- TGI (RPMI-8226 leukemia): 692 nM
- GI50 (NCI-H23 lung): 302 nM
- TGI (NCI-H23 lung): 1540 nM
- GI50 (NCI/ADR-RES ovarian): 374 nM
- TGI (NCI/ADR-RES ovarian): 4890 nM
- GI50 (M14 melanoma): 336 nM
- TGI (M14 melanoma): 1720 nM
- GI50 (SW-620 colon): 170 nM
- TGI (SW-620 colon): 5550 nM
- GI50 (CCRF-CEM leukemia): 164 nM
- TGI (CCRF-CEM leukemia): 1120 nM
- GI50 (UACC-62 melanoma): 341 nM
- TGI (UACC-62 melanoma): 1850 nM
- GI50 (HCT-116 colon): 136 nM
- TGI (HCT-116 colon): 550 nM
- GI50 (A549 NSCLC): 64.3 nM
- TGI (A549 NSCLC): 256 nM
- GI50 (NCI-H226 lung): 144 nM
- TGI (NCI-H226 lung): 327 nM
- GI50 (KM12 colon): 259 nM
- TGI (KM12 colon): 10000 nM
- GI50 (U251 CNS): 100 nM
- TGI (U251 CNS): 506 nM
- GI50 (HT29 colon): 147 nM
- TGI (HT29 colon): 860 nM
- GI50 (MDA-MB-231 breast): 404 nM
- TGI (MDA-MB-231 breast): 1930 nM
- GI50 (OVCAR-5 ovarian): 331 nM
- TGI (OVCAR-5 ovarian): 1900 nM
- GI50 (HS 578T breast): 1620 nM
- TGI (HS 578T breast): 13500 nM
- GI50 (SK-MEL-2 melanoma): 1130 nM
- TGI (SK-MEL-2 melanoma): 4120 nM
- GI50 (LOX IMVI melanoma): 141 nM
- TGI (LOX IMVI melanoma): 319 nM
- GI50 (RXF 393 renal): 260 nM
- TGI (RXF 393 renal): 922 nM
- GI50 (IGROV1 ovarian): 330 nM
- TGI (IGROV1 ovarian): 4490 nM
- GI50 (BT-549 breast): 936 nM
- TGI (BT-549 breast): 5140 nM
- GI50 (TK-10 renal): 296 nM
- TGI (TK-10 renal): 1670 nM
- GI50 (SF-539 CNS): 320 nM
- TGI (SF-539 CNS): 1390 nM
- GI50 (SK-OV-3 ovarian): 221 nM
- TGI (SK-OV-3 ovarian): 752 nM
- GI50 (MCF7 breast): 42.7 nM
- TGI (MCF7 breast): 2750 nM
- GI50 (SK-MEL-5 melanoma): 254 nM
- TGI (SK-MEL-5 melanoma): 1060 nM
- GI50 (OVCAR-3 ovarian): 282 nM
- TGI (OVCAR-3 ovarian): 2140 nM
- GI50 (K-562 leukemia): 206 nM
- TGI (K-562 leukemia): 1680 nM
- GI50 (UO-31 renal): 123 nM
- TGI (UO-31 renal): 568 nM
- GI50 (MOLT-4 leukemia): 48.5 nM
- TGI (MOLT-4 leukemia): 369 nM
- GI50 (HOP-92 NSCLC): 360 nM
- TGI (HOP-92 NSCLC): 4390 nM
- GI50 (NCI-H522 lung): 56.2 nM
- TGI (NCI-H522 lung): 1020 nM
- GI50 (PC-3 prostate): 301 nM
- TGI (PC-3 prostate): 10300 nM
- GI50 (UACC-257 melanoma): 403 nM
- TGI (UACC-257 melanoma): 2160 nM
- GI50 (SNB-19 CNS): 160 nM
- TGI (SNB-19 CNS): 1260 nM
- GI50 (COLO 205 colon): 68.8 nM
- TGI (COLO 205 colon): 1160 nM
- GI50 (NCI-H460 lung): 45.7 nM
- TGI (NCI-H460 lung): 222 nM
- GI50 (OVCAR-8 ovarian): 183 nM
- TGI (OVCAR-8 ovarian): 992 nM
- GI50 (OVCAR-4 ovarian): 460 nM
- TGI (OVCAR-4 ovarian): 11000 nM
- GI50 (SR leukemia): 127 nM
- TGI (SR leukemia): 978 nM
- GI50 (SF-268 CNS): 386 nM
- TGI (SF-268 CNS): 10900 nM
- GI50 (DU-145 prostate): 215 nM
- TGI (DU-145 prostate): 1370 nM
- GI50 (HCC-2998 colon): 1060 nM
- TGI (HCC-2998 colon): 2500 nM
- GI50 (786-0 renal): 195 nM
- TGI (786-0 renal): 755 nM
- GI50 (HCT-15 colon): 228 nM
- TGI (HCT-15 colon): 3320 nM
- GI50 (SK-MEL-28 melanoma): 1230 nM
- TGI (SK-MEL-28 melanoma): 3450 nM
- GI50 (SF-295 CNS): 194 nM
- TGI (SF-295 CNS): 721 nM
- GI50 (T-47D breast): 145 nM
- TGI (T-47D breast): 761 nM
- GI50 (EKVX NSCLC): 328 nM
- TGI (EKVX NSCLC): 2780 nM
- GI50 (SNB-75 CNS): 364 nM
- TGI (SNB-75 CNS): 5030 nM
- GI50 (MALME-3M melanoma): 329 nM
- TGI (MALME-3M melanoma): 1440 nM
- GI50 (HOP-62 NSCLC): 149 nM
- TGI (HOP-62 NSCLC): 472 nM
- GI50 (HL-60(TB) leukemia): 202 nM
- TGI (HL-60(TB) leukemia): 644 nM

— PubChem BioAssay (NCI)
